“Also recorded” adds a separate entry of the source.
How the values were obtained:
[1] = tested on: mesenchymal A549 spheroids; experiment: Intracellular doxorubicin accumulation and viability in spheroids; assay type: cell-based, Human; settings: FIG. 9
Method: FIG. 9. T12 enhances intracellular accumulation of doxorubicin in A549 mesenchymal spheroids. A549 spheroids were subjected to EMT induction with TGF-β and TNF-α during 4 days, and treated with T12 (10 μM) or maintained untreated (Placebo) for the last 2 days. Three hours before spheroid analysis doxorubicin (1 μM) was added. Spheroids were fixed and analyzed by immunofluorescence confocal microscopy with anti-α1α2(IV) antibodies for collagen IV network visualization (grey). Doxorubicin was detected by its own auto-fluorescence. […] Three-dimensional spheroid cultures of A549 cells were obtained using a hanging droplet method (Kelm et al., 2003. Biotechnol. Bioeng. 83: 173-180.; Kumar et al., 2013. PLoS One. 8: e68597). Briefly, cells were grown to approximately 80% confluence on adherent tissue-culture flasks. Then cells were trypsinized, dispersed in DMEM/10% FBS, and counted using an automated cell counter (MOXI® Z, Orflo). The cell suspension was diluted to a 10^6 cells/mL-concentration, and 25 μl of the cell suspension were pipetted onto the underside of a sterile 10-cm tissue culture plate lid. Each lid was loaded with approximately 55 droplets. After loading, the lid was placed onto a tissue culture plate containing 6 mL of sterile PBS (phosphate-buffered saline) and incubated for 48 hours to facilitate spheroid formation. […]

circulating 4T1 cells = experiment: Cell death / caspase 3 activation in circulating 4T1 cells; assay type: cell-based, Mouse
Method: FIG. 11. T12 targets circulating 4T1 cancer cells. A, Balb/c female mice were inoculated with 4T1 mouse breast cancer cells at mammary fat pads. At day 20 after cell inoculation mice were subjected to PET analysis for metastases detection. White arrows denote metastatic foci at the spinal cord. B, Balb/c female from A were either left untreated (Control), or were treated with T12 in drinking water from day 20. At day 35 blood was seeded in the presence of 6-thioguanine and circulating 4T1 cells selected and further cultured. Shown are phase contrast images of the resulting cultures acquired with an inverted microscope. […] C, circulating 4T1 cells recovered as in B and 4T1 cells were cultured in standard 2D cultures and subjected to RNA extraction, and RNA samples were analyzed by RT-qPCR. Shown are the relative quantities (RQ) of the indicated mRNAs of circulating 4T1 cells using levels from 4T1 cells as reference. […] Dead cells in culture media were quantified by measuring cell size using an automated cell counter (Moxi Z, Orflo). […] E, circulating 4T1 cells recovered as in B or 4T1 cells were cultured in ultra-low binding plates and treated with the indicated concentrations of T12 for 9 days, cells were lysed and analyzed by Western blot using antibodies specific for activated caspase 3. The levels of GAPDH were determined for loading control purposes. […]

COc1ccc(-c2ccc(-c3cccc(C)c3)c(C)c2)c(CCC(=O)O)c1 [T12, 3-[4″-methoxy-3,2′-dimethyl-(1,1′;4′,1″)terphenyl-2″-yl] propionic acid]
intracellular accumulation of doxorubicin (nuclei containing doxorubicin) ([1]; T12 10 μM last 2 days, doxorubicin 1 μM 3 h before analysis): accumulating doxorubicin inside the cells; also recorded: more abundant in spheroids treated with doxorubicin and T12 than in spheroids treated only with doxorubicin | viability of spheroids with doxorubicin ([1]; T12 10 μM plus doxorubicin 1 μM): sharply reduced the viability | sensitivity to T12 after further induction of mesenchymal phenotype (circulating 4T1 cells; 4T1 cells inoculated into mice or cultured in low adherent dishes (3D cultures), FIG. 11): more sensitivity to T12 | sensitivity to T12: dead cells and activated caspase 3 (circulating 4T1 cells; 24 h (dead cells) or 9 days in ultra-low binding plates (caspase 3), FIG. 11D-E): more sensitive and underwent apoptotic cell death (caspase 3 activation)

Reference: patent US20160184274A1, “Methods for inhibiting mesenchymal phenotype after epithelial-to-mesenchymal transition” (Fibrostatin, S.L., priority 2014, published 2016)
